Laboratory results as given in PubChem BioAssay (NCI).
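In this assay, cells in 96-well plates receive the compound at five concentrations for 48 hours. Endpoints are linearly interpolated between the surrounding concentrations. GI50 marks 50% less growth. Definition used: TGI = concentration required for complete inhibition of growth.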

Legend:
Test in all cases: NCI-60 cell line screen, 48 h
DMS 273 small cell lung = test system: DMS 273 small cell lung
IGROV1 ovarian = test system: IGROV1 ovarian
DLD-1 colon = test system: DLD-1 colon
LXFL 529 NSCLC = test system: LXFL 529 NSCLC
SK-MEL-28 melanoma = test system: SK-MEL-28 melanoma
NCI-H226 lung = test system: NCI-H226 lung
SK-MEL-2 melanoma = test system: SK-MEL-2 melanoma
SK-MEL-5 melanoma = test system: SK-MEL-5 melanoma
NCI-H522 lung = test system: NCI-H522 lung
SF-539 CNS = test system: SF-539 CNS
DMS 114 small cell lung = test system: DMS 114 small cell lung
M19-MEL melanoma = test system: M19-MEL melanoma
TK-10 renal = test system: TK-10 renal
OVCAR-5 ovarian = test system: OVCAR-5 ovarian
MDA-N = test system: MDA-N
HS 578T breast = test system: HS 578T breast

SMILES	TGI (DMS 273 small cell lung)	TGI (IGROV1 ovarian)	TGI (DLD-1 colon)	TGI (LXFL 529 NSCLC)	TGI (SK-MEL-28 melanoma)	TGI (NCI-H226 lung)	TGI (SK-MEL-2 melanoma)	GI50 (SK-MEL-5 melanoma)	TGI (SK-MEL-5 melanoma)	TGI (NCI-H522 lung)	TGI (SF-539 CNS)	GI50 (DMS 114 small cell lung)	TGI (DMS 114 small cell lung)	TGI (M19-MEL melanoma)	TGI (TK-10 renal)	TGI (OVCAR-5 ovarian)	TGI (MDA-N)	TGI (HS 578T breast)
O=c1cc(-c2ccc3c(c2)OCO3)[nH]c2cc3c(cc12)OCO3	> 100 µM	> 100 µM	> 100 µM	> 100 µM	> 100 µM	> 100 µM	> 100 µM	25.4 µM	> 100 µM	> 100 µM	69.1 µM	24 µM	96.1 µM	78.2 µM	> 100 µM	–	–	–
CCOC(=O)/C(=C/c1ccc(OC)cc1)N(CC)CC	> 100 µM	> 100 µM	–	> 100 µM	> 100 µM	> 100 µM	> 100 µM	–	> 100 µM	> 100 µM	> 100 µM	–	> 100 µM	> 100 µM	> 100 µM	> 100 µM	–	–
CCCC/C=C/C=C/C=C/CCCCCCCC(=O)OCC(COC(=O)CCCCCCC/C=C/C1C=CC(CCCC)C(C(=O)O)C1C(=O)O)OC(=O)CCCCCCC/C=C/C=C/C=C/CCCC (stereo not drawn) (tested in a mixture with another compound)	29.9 µM	37.8 µM	40 µM	32.8 µM	33.3 µM	35.8 µM	29.5 µM	–	31.1 µM	–	39.1 µM	–	23.1 µM	36.9 µM	37.7 µM	43.1 µM	–	–
O=C(Nc1c(O)[nH]c(=S)[nH]c1=O)c1ccccc1	–	> 100 µM	> 100 µM	> 100 µM	> 100 µM	> 100 µM	> 100 µM	–	> 100 µM	> 100 µM	> 100 µM	–	> 100 µM	> 100 µM	> 100 µM	> 100 µM	–	–
O=c1[nH]c2cc(Cl)ccc2nc1/C(=N\Nc1ccccc1)C(O)c1ccc(Cl)c(Cl)c1 (stereo not drawn)	> 100 µM	> 100 µM	> 100 µM	> 100 µM	–	> 100 µM	> 100 µM	–	> 100 µM	> 100 µM	> 100 µM	–	> 100 µM	> 100 µM	> 100 µM	> 100 µM	–	–
O=c1c(F)cn(Cc2c(Cl)cccc2Cl)c(=O)n1Cc1c(Cl)cccc1Cl	–	> 31.6 µM	–	–	> 31.6 µM	> 100 µM	> 31.6 µM	–	> 31.6 µM	> 31.6 µM	> 31.6 µM	–	–	–	> 31.6 µM	> 31.6 µM	> 31.6 µM	> 31.6 µM
O=C(O)Cc1ccc([N+](=O)[O-])cc1[N+](=O)[O-]	–	> 100 µM	–	–	> 100 µM	> 100 µM	> 100 µM	–	> 100 µM	> 100 µM	> 100 µM	–	–	–	> 100 µM	> 100 µM	> 100 µM	> 100 µM
CCn1cnc2c(=S)nc(N)[nH]c21	> 100 µM	> 100 µM	> 100 µM	> 100 µM	> 100 µM	> 100 µM	–	–	–	> 100 µM	> 100 µM	–	> 100 µM	> 100 µM	> 100 µM	–	–	–
C[C@]12c3c4cc(NC(=O)C(=O)NCc5ccc(-c6ccccn6)nc5)cc3Oc3cc(NC(=O)C(=O)NCc5ccc(-c6ccccn6)nc5)cc(c31)OC1C=C(NC(=O)C(=O)NCc3ccc(-c5ccccn5)nc3)C=C(O4)C12 (stereo partly drawn)	–	40.6 µM	–	–	> 100 µM	> 100 µM	> 100 µM	–	> 100 µM	> 100 µM	> 100 µM	–	–	–	> 100 µM	> 100 µM	> 100 µM	> 100 µM
CC(C)(CN1CCCCC1)C(/C=C/c1ccc(Cl)cc1)=N\NC(=O)N/N=C(/C=C/c1ccc(Cl)cc1)C(C)(C)CN1CCCCC1	–	13.4 µM	–	–	25.3 µM	16.4 µM	22.8 µM	–	11.2 µM	8.05 µM	18.9 µM	–	–	–	22.5 µM	14.7 µM	10.7 µM	19.9 µM
O=C1OC(c2ccccc2)=N/C1=C\c1ccc([N+](=O)[O-])cc1	–	> 100 µM	–	–	> 100 µM	18.9 µM	86 µM	–	> 100 µM	> 100 µM	> 100 µM	–	–	–	> 100 µM	> 100 µM	> 100 µM	> 100 µM
C/C(CN1C(=O)c2ccccc2C1=O)=N\NS(=O)(=O)c1ccc(Cl)cc1	> 100 µM	> 100 µM	> 100 µM	> 100 µM	–	> 100 µM	> 100 µM	–	> 100 µM	> 100 µM	> 100 µM	–	–	> 100 µM	> 100 µM	> 100 µM	–	–
O=c1[nH]c(=O)n(C2COC(CO)C2O)cc1F (stereo not drawn)	–	> 100 µM	–	–	> 100 µM	> 100 µM	> 100 µM	–	> 100 µM	> 100 µM	> 100 µM	–	–	–	> 100 µM	> 100 µM	> 100 µM	> 100 µM
COCCOCOC(CCCCO)c1cc(C)c(O[Si](C)(C)C(C)(C)C)c(C)c1 (stereo not drawn)	–	26.7 µM	–	22.6 µM	25.2 µM	10.3 µM	21.9 µM	–	12.8 µM	6 µM	26 µM	–	10.2 µM	18 µM	27.3 µM	26.7 µM	–	–
N#C/C(N)=C(\C#N)NC=NCCO	–	> 100 µM	–	–	> 100 µM	> 100 µM	> 100 µM	–	> 100 µM	> 100 µM	> 100 µM	–	–	–	> 100 µM	> 100 µM	> 100 µM	> 100 µM
O=C1NC2(CCN(CCc3ccccc3)CC2)Oc2ccccc21	–	> 100 µM	–	–	> 100 µM	> 100 µM	> 100 µM	–	27.8 µM	> 100 µM	> 100 µM	–	–	–	> 100 µM	> 100 µM	> 100 µM	50.7 µM
CCNC(=O)c1ccc(C)c(N=NN(C)C)c1	> 100 µM	> 100 µM	> 100 µM	> 100 µM	> 100 µM	–	> 100 µM	–	> 100 µM	> 100 µM	> 100 µM	–	–	> 100 µM	> 100 µM	–	–	–
N=c1oc2ccccc2cc1C(=O)NC12CC3CC(CC(C3)C1)C2	–	> 65.6 µM	–	–	> 100 µM	> 90.3 µM	31.3 µM	–	69.9 µM	14.8 µM	42 µM	–	–	–	43.5 µM	> 100 µM	> 100 µM	> 100 µM
CC1=C/C(=N\NC(N)=S)C(C(O)(C(F)(F)F)C(F)(F)F)C(C)(C)C1 (stereo not drawn)	–	> 10 µM	–	–	> 10 µM	> 10 µM	> 10 µM	–	> 10 µM	> 10 µM	> 10 µM	–	–	–	> 10 µM	> 10 µM	> 10 µM	> 10 µM
COc1ccc(C2Oc3cc(OC)c(OC)cc3C2CCl)cc1OC (stereo not drawn)	> 100 µM	–	> 100 µM	> 100 µM	> 100 µM	> 100 µM	> 100 µM	–	> 100 µM	> 100 µM	> 100 µM	–	> 100 µM	> 100 µM	> 100 µM	> 100 µM	–	–
O=C(O)C1C2c3ccccc3C(c3ccccc32)C1C(=O)NCC1CC1 (stereo not drawn)	–	> 100 µM	–	–	> 100 µM	> 100 µM	> 100 µM	–	> 100 µM	86.9 µM	> 100 µM	–	–	–	> 100 µM	> 100 µM	> 100 µM	> 100 µM
CSC(=O)c1sc(SC)[n+](-c2ccccc2)c1O	–	37.2 µM	–	–	34.9 µM	52.9 µM	53.1 µM	–	55.7 µM	24.8 µM	29.5 µM	–	–	–	40.3 µM	49.6 µM	37.1 µM	> 100 µM
O=C1SC(SCc2ccccc2)=NC12CC2c1ccccc1 (stereo not drawn)	–	52.6 µM	–	–	41.5 µM	52 µM	40.1 µM	–	34.1 µM	33.5 µM	37.7 µM	–	–	–	81.1 µM	38.9 µM	49 µM	68.4 µM
COc1ccc(S(=O)(=O)n2c3c(c4ccccc42)[C@@H]2[C@@H](CCCN2C(=O)CS(=O)c2ccc(C)cc2)[C@H](Cl)C3)cc1 (stereo partly drawn)	–	> 100 µM	–	–	> 100 µM	> 100 µM	> 100 µM	–	> 100 µM	> 100 µM	> 100 µM	–	–	–	> 100 µM	> 100 µM	> 100 µM	> 100 µM
COc1ccc(C2c3cc4c(cc3OC3(OC)COC(=O)C23)OCO4)c(OC)c1 (stereo not drawn)	–	> 100 µM	–	–	> 100 µM	> 100 µM	> 100 µM	–	> 90.1 µM	> 22.5 µM	21.5 µM	–	–	–	> 95.6 µM	> 100 µM	5.24 µM	27.1 µM
C[N+]12C=CC=C1C(N1CCCC1)c1scc(-c3ccc(Br)cc3)c12 (stereo not drawn)	–	20.8 µM	–	–	> 60.5 µM	> 100 µM	17.3 µM	–	16.1 µM	9.89 µM	21.9 µM	–	–	–	> 100 µM	> 100 µM	98.2 µM	9.6 µM
O=[N+]([O-])c1ccc2nc(Nc3ccccc3)c(Nc3ccccc3)nc2c1	–	4.98 µM	–	–	8.4 µM	5.1 µM	4.49 µM	–	2.82 µM	1.33 µM	2.98 µM	–	–	–	6.84 µM	6.93 µM	2.23 µM	8.75 µM
